Results published in US11446287B2, “Compounds and methods for EP300 or CBP modulation and indications therefor” (Opna Immuno-Oncology SA, priority 2019, dated 2022).
pIC50: −log10 of the molar value.

molecular target: T1, Recombinant human CBP containing the bromodomain (CBP-BD (1043-1159)) (Homo sapiens, UniProt Q92793); test: CBP Alphascreen binding assay; conditions: read-out: CREBBP (CBP) IC50
T1 construct: Recombinant human CBP bromodomain (CBP-BD (1043-1159)); made in house; host or cells: E. coli BL21-CodonPlus (DE3), modified pET vector
Description: CBP Alphascreen Binding Assay
Binding of compounds of Formula (I) with CBP was assessed using Alphascreen™ binding assay. The inhibition of the interaction between the CBP bromodomain and its acetylated target protein was measured quantitatively using recombinant CBP, an acetylated Histone 3 peptide and AlphaScreen™ technology. In absence of inhibition of the CBP protein bound to AlphaScreen™ nickel chelate acceptor beads can interact with the acetylated Histone 3 peptide which was immobilized by the AlphaScreen™ Streptavidin coated beads. This interaction brings donor and acceptor beads in proximity. The close proximity allows the singlet oxygen produced by laser excitation of the donor beads to reach the acceptor beads and generate a luminescence signal. CBP inhibitors result in a decrease in the proximity signal through an inhibition of the CBP—acetylated peptide interaction.
Recombinant human CBP containing the bromodomain (CBP-BD (1043-1159)) was prepared and purified as described in protein expression and purification session. The peptide was human Histone H345-64K56Ac-Biotin (Anaspec CA, USA).
Protocol for CBP assay: All components are prepared in buffer composed of 50 mM HEPES pH 7.5, 50 mM NaCl, 0.01% BSA, 0.01% Triton X-100, 2 mM DTT. Test compounds and DMSO vehicle are diluted 1:50 in buffer and a 4 μL volume was transferred to an Alphaplate. 5.5 μL of CBP protein and 5.5 μL of peptide are added to wells containing 4 μL of various concentrations of test compounds of Formula (I) or DMSO vehicle in an Alphaplate (PerkinElmer GA, USA) and incubated for 1 hour at room temperature. 5 μL donor and acceptor bead mixture was then added with final concentrations of 7.5 μg/ml. 60 minutes after bead addition, Alpha signal was read on the Envision spectrometer (λEx 680 nm, λEm 520-620 nm). Final concentrations of bromodomain proteins and peptide are as shown below.
All data were normalized to the mean of 16 high and 16 low control wells on each plate. A four parameter curve fit of the following formula was then applied: Y=A+((B−A)/(1+((C/x)^D))) Where ‘A’ is the minimum, ‘B’ is the maximum, ‘C’ is the IC50 and ‘D’ is the Hill slope. Protein Expression and Purification
Recombinant human CBP bromodomain (CBP-BD (1043-1159)) was expressed in E. coli cells (in a modified pET vector) with an N-terminal six-His tag and purified using a combination of both IMAC (Ni-affinity) and size exclusion chromatography steps.
Recombinant CBP protein was expressed using the E. coli strain BL21-CodonPlus (DE3) (Agilent Technologies CA, USA). Cells were grown in Terrific Broth (TB) media to an OD600 of 0.92 at 37° C. at which temperature was reduced to 20° C., protein was induced with 1.0 mM isopropyl-β-D-thiogalactopyranoside (“IPTG”) for 20 hours and harvested by centrifugation at 8500×g for 20 minutes. Cells were re-suspended in 0.1M K2PO4 pH 8.0, 250 mM NaCl, 10% Glycerol, 0.75% NP-40, 25 mM Imidazole, with 0.2 mg/ml Lysozyme, 0.2 mM phenylmethanesulfonyl fluoride (“PMSF”), […] (“BME”), 25 μg/ml DNase I, incubated on ice for 30 minutes and lysed with a cell disruptor (MicroFluidics MA, USA). The lysate was clarified by centrifugation at 20,000×g for 1 hour. The protein was captured with Ni-NTA resin (Life Technologies, USA). Contaminating proteins were washed off with 40 mM HEPES pH 7.5, 500 mM NaCl, 5% Glycerol, 5 mM Imidazole, and 5 mM BME. Following 3× wash steps, protein was eluted using 400 mM Imidazole in 40 mM HEPES pH 7.5, 400 mM NaCl, and 5 mM BME. The protein was further purified using a size exclusion column (26/600 Superdex 200, GE Biosciences NJ, USA) in 40 mM HEPES pH 7.5, 250 mM NaCl, 5 mM BME. The protein was aliquoted and flash-frozen in liquid Nitrogen.

T1 sequence (Q92793 1081-1197): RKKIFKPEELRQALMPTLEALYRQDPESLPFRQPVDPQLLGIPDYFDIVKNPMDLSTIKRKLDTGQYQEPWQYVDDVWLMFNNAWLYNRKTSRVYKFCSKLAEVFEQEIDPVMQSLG

| Compound | pIC50 |
| --- | --- |
| COc1cc(C(=O)O)cc(OC)c1-c1cn([C@@H](C)c2ccccn2)c2ncc(-c3c(C)noc3C)cc12 [P-0103, (S)-4-(5-(3,5-dimethylisoxazol-4-yl)-1-(1-(pyridin-2-yl)ethyl)-1H-pyrrolo[2,3-b]pyridin-3-yl)-3,5-dimethoxybenzoic acid] | 6.00 to 10.00 |
| COc1cc(C(=O)O)cc(O)c1-c1cn([C@@H](C)c2ccccn2)c2ncc(-c3c(C)noc3C)cc12 [P-0144, (S)-4-(5-(3,5-dimethylisoxazol-4-yl)-1-(1-(pyridin-2-yl)ethyl)-1H-pyrrolo[2,3-b]pyridin-3-yl)-3-hydroxy-5-methoxybenzoic acid] | 6.00 to 10.00 |
| Cc1noc(C)c1-c1cnc2c(C(=O)c3cccc(OC(F)F)c3)cn(-c3c(Cl)cc(C(=O)O)cc3Cl)c2c1 [P-0129, 3,5-dichloro-4-(3-(3-(difluoromethoxy)benzoyl)-6-(3,5-dimethylisoxazol-4-yl)-1H-pyrrolo[3,2-b]pyridin-1-yl)benzoic acid] | 6.00 to 10.00 |
| Cc1noc(C)c1-c1cnc2c(-c3ccc(C(=O)O)cc3)c(C(F)(F)F)n([C@@H](C)c3ccccn3)c2c1 [P-0154, (S)-4-(6-(3,5-dimethylisoxazol-4-yl)-1-(1-(pyridin-2-yl)ethyl)-2-(trifluoromethyl)-1H-pyrrolo[3,2-b]pyridin-3-yl)benzoic acid] | 6.00 to 10.00 |
| Cc1noc(C)c1-c1cnc2c(-c3cc(C(=O)O)ccc3Cl)cn(C(C)(c3ccccn3)c3ccccn3)c2c1 [P-0164, 4-chloro-3-(1-(1,1-di(pyridin-2-yl)ethyl)-6-(3,5-dimethylisoxazol-4-yl)-1H-pyrrolo[3,2-b]pyridin-3-yl)benzoic acid] | 6.00 to 10.00 |
| Cc1noc(C)c1-c1cnc2c(c1)c(-c1nccc(C(=O)O)n1)cn2[C@@H](C)c1ccccn1 [P-0107, (S)-2-(5-(3,5-dimethylisoxazol-4-yl)-1-(1-(pyridin-2-yl)ethyl)-1H-pyrrolo[2,3-b]pyridin-3-yl)pyrimidine-4-carboxylic acid] | 5.10 to 6.00 |
| Cc1noc(C)c1-c1cnc2c(-c3cccc(C(=O)O)c3)c(C(F)(F)F)n([C@@H](C)c3ccccn3)c2c1 [P-0162, (S)-3-(6-(3,5-dimethylisoxazol-4-yl)-1-(1-(pyridin-2-yl)ethyl)-2-(trifluoromethyl)-1H-pyrrolo[3,2-b]pyridin-3-yl)benzoic acid] | 6.00 to 10.00 |
| Cc1noc(C)c1-c1cnc2c(CC3CCC3)cn(-c3c(OC(C)C)cc(C(=O)O)cc3OC(C)C)c2c1 [P-0111, 4-(3-(cyclobutylmethyl)-6-(3,5-dimethylisoxazol-4-yl)-1H-pyrrolo[3,2-b]pyridin-1-yl)-3,5-diisopropoxybenzoic acid] | 6.00 to 10.00 |
| Cc1noc(C)c1-c1cnc2c(c1)c(-c1ccc(C(=O)O)cc1OC(F)(F)F)cn2C(C1CC1)C1CC1 [P-0156, 4-(1-(dicyclopropylmethyl)-5-(3,5-dimethylisoxazol-4-yl)-1H-pyrrolo[2,3-b]pyridin-3-yl)-3-(trifluoromethoxy)benzoic acid] | 6.00 to 10.00 |
| Cc1noc(C)c1-c1cnc2c(Cc3cccc(OCc4ccccc4)c3)cn(-c3c(Cl)cc(C(=O)O)cc3Cl)c2c1 [P-0132, 4-(3-(3-(benzyloxy)benzyl)-6-(3,5-dimethylisoxazol-4-yl)-1H-pyrrolo[3,2-b]pyridin-1-yl)-3,5-dichlorobenzoic acid] | 6.00 to 10.00 |
| Cc1noc(C)c1-c1cnc2c(-c3ccccc3C#N)cn(C(C)(c3ccccn3)c3ccccn3)c2c1 [P-0169, 2-(1-(1,1-di(pyridin-2-yl)ethyl)-6-(3,5-dimethylisoxazol-4-yl)-1H-pyrrolo[3,2-b]pyridin-3-yl)benzonitrile] | 6.00 to 10.00 |
| CCOc1cc(C(=O)O)cc(OCC)c1-n1cc(-c2ccccc2)c2ncc(-c3c(C)noc3C)cc21 [P-0168, 4-(6-(3,5-dimethylisoxazol-4-yl)-3-phenyl-1H-pyrrolo[3,2-b]pyridin-1-yl)-3,5-diethoxybenzoic acid] | 6.00 to 10.00 |
| CCOc1cc(C(=O)O)cc(OCC)c1-n1cc(CC2CCC2)c2ncc(-c3c(C)noc3C)cc21 [P-0109, 4-(3-(cyclobutylmethyl)-6-(3,5-dimethylisoxazol-4-yl)-1H-pyrrolo[3,2-b]pyridin-1-yl)-3,5-diethoxybenzoic acid] | 6.00 to 10.00 |
| Cc1noc(C)c1-c1cnc2c(CC3CCC3)cn(-c3ccc([N+](=O)[O-])cc3F)c2c1 [P-0130, 4-(3-(cyclobutylmethyl)-1-(2-fluoro-4-nitrophenyl)-1H-pyrrolo[3,2-b]pyridin-6-yl)-3,5-dimethylisoxazole] | 3.00 to 5.10 |
| CCOc1cc(C(=O)O)cc(OCC)c1-c1cn([C@@H](C)c2ccccn2)c2ncc(-c3c(C)noc3C)cc12 [P-0147, (S)-4-(5-(3,5-dimethylisoxazol-4-yl)-1-(1-(pyridin-2-yl)ethyl)-1H-pyrrolo[2,3-b]pyridin-3-yl)-3,5-diethoxybenzoic acid] | 6.00 to 10.00 |
| Cc1noc(C)c1-c1cnc2c(c1)c(-c1cccc(C(=O)O)n1)cn2C(C)c1ccccn1 (stereo not drawn) [P-0122, 6-(5-(3,5-dimethylisoxazol-4-yl)-1-(1-(pyridin-2-yl)ethyl)-1H-pyrrolo[2,3-b]pyridin-3-yl)picolinic acid] | 5.10 to 6.00 |
| Cc1noc(C)c1-c1cnc2c(-c3ccccc3Cl)cn(C(C)(c3ccccn3)c3ccccn3)c2c1 [P-0155, 4-(3-(2-chloropheny1)-1-(1,1-di(pyridin-2-yl)ethyl)-1H-pyrrolo[3,2-b]pyridin-6-yl)-3,5-dimethylisoxazole] | 6.00 to 10.00 |
| Cc1noc(C)c1-c1cnc2c(c1)c(-c1cc(C(=O)O)ccn1)cn2C(C)c1ccccn1 (stereo not drawn) [P-0124, 2-(5-(3,5-dimethylisoxazol-4-yl)-1-(1-(pyridin-2-yl)ethyl)-1H-pyrrolo[2,3-b]pyridin-3-yl)isonicotinic acid] | 6.00 to 10.00 |
| Cc1noc(C)c1-c1cnc2c(c1)c(-c1cccc(C(=O)O)c1)cn2CC1(C)COC1 [P-0102, 3-(5-(3,5-dimethylisoxazol-4-yl)-1-((3-methyloxetan-3-yl)methyl)-1H-pyrrolo[2,3-b]pyridin-3-yl)benzoic acid] | 5.10 to 6.00 |
| Cc1ccc(S(=O)(=O)n2cc(-c3ccc(C(=O)O)cc3)c3cc(-c4c(C)noc4C)cnc32)cc1 [P-0006, 4-(5-(3,5-dimethylisoxazol-4-yl)-1-tosyl-1H-pyrrolo[2,3-b]pyridin-3-yl)benzoic acid] | 5.10 to 6.00 |
| CCCOc1cc(C(=O)O)cc(OCCC)c1-c1cn([C@@H](C)c2ccccn2)c2ncc(-c3c(C)noc3C)cc12 [P-0117, (S)-4-(5-(3,5-dimethylisoxazol-4-yl)-1-(1-(pyridin-2-yl)ethyl)-1H-pyrrolo[2,3-b]pyridin-3-yl)-3,5-dipropoxybenzoic acid] | 6.00 to 10.00 |
| COc1cc(C(=O)O)cc(OCc2ccccc2)c1-c1cn([C@@H](C)c2ccccn2)c2ncc(-c3c(C)noc3C)cc12 [P-0135, (S)-3-(benzyloxy)-4-(5-(3,5-dimethylisoxazol-4-yl)-1-(1-(pyridin-2-yl)ethyl)-1H-pyrrolo[2,3-b]pyridin-3-yl)-5-methoxybenzoic acid] | 6.00 to 10.00 |
| Cc1noc(C)c1-c1cnc2c(-c3cc(C(=O)O)ccc3Cl)cn(C(C)c3ccccc3)c2c1 (stereo not drawn) [P-0141, 4-chloro-3-(6-(3,5-dimethylisoxazol-4-yl)-1-(1-phenylethyl)-1H-pyrrolo[3,2-b]pyridin-3-yl)benzoic acid] | 6.00 to 10.00 |
| Cc1noc(C)c1-c1cnc2c(c1)c(-c1ccc(C(=O)O)cc1)cn2C(c1ccccn1)C1CC1 (stereo not drawn) [P-0007, 4-(1-(cyclopropyl(pyridin-2-yl)methyl)-5-(3,5-dimethylisoxazol-4-yl)-1H-pyrrolo[2,3-b]pyridin-3-yl)benzoic acid] | 6.00 to 10.00 |
